Values after ≈ are worked out from the molar mass of the structure shown.
Key:
Test in all cases: in vitro antibacterial evaluation, MIC by broth dilution
Type in all cases: cell-based
Enterococcus sp. = conditions: broth dilution, 18 hours at 35° C.
Experimental: (§1) Methods for in vitro Antibacterial Evaluation (Table 1)
(§2) The minimum inhibitory concentration (MIC), the lowest concentration of the antibiotic which inhibits growth of the test organism, is determined by the broth dilution method using Muller-Hinton II […] (Baltimore Biological Laboratories) following the recommendations of the National Committee for Clinical Laboratory Standards [Methods for dilution antimicrobial susceptibility tests for bacteria that grow aerobically, approved standard M7-A2, National Committee for Clinical Laboratory Standards, Villanova, Pa.].
(§3) An inoculum level of 5×10^5 CFU/mL, and a range of antibiotic concentrations (64-0.06 μg/mL) is used. […] The test organisms include a spectrum of Gram-positive bacteria comprised of Staphylococcus sp., Streptococcus sp. and Enterococcus sp. These organisms include recent clinical isolates that are resistant to methicillin, penicillin and/or vancomycin.

Staphylococcus sp. = conditions: broth dilution, 18 hours at 35° C.
Experimental: as §1, §2, §3

Streptococcus sp. = conditions: broth dilution, 18 hours at 35° C.
Experimental: as §1, §2, §3

Escherichia coli = conditions: 18 hours at 35° C.
In short: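 Broth dilution in Muller-Hinton II medium per NCCLS standard M7-A2, with an inoculum of 5×10^5 CFU/mL and antibiotic tested over 64-0.06 μg/mL. MIC was taken as the lowest concentration inhibiting visible growth.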

Q: With `CCCCCCCN1CC(C(O)C2NC(=O)C(C(O)C3CNC(=N)N3)NC(=O)C(Cc3ccc(OC4OC(CO)C(OC5OC6COC7(OC6C(O)C5O)C5CC6CC(C5)CC7C6)C(O)C4O)cc3)NC(=O)C(C(C)c3ccccc3)NC(=O)CNC(=O)C(CO)NC2=O)N(C2OC(CO)C(O)C(O)C2O)C1=N` (stereo not drawn) [Example 83] as the compound, how does the “MIC Enterococcus avium (GC 4558)” value (Enterococcus sp.; Enterococcus avium (GC 4558)) read?
A: 2 µg/mL (≈ 1.31 µM)

Q: And the “MIC Enterococcus faecalis (ATCC 29212)” value (Enterococcus sp.; Enterococcus faecalis (ATCC 29212))?
A: 4 µg/mL (≈ 2.62 µM)

Q: And the “MIC Enterococcus faecalis (GC 4552)” value (Enterococcus sp.; Enterococcus faecalis (GC 4552))?
A: 4 µg/mL (≈ 2.62 µM)

Q: What about the “MIC Enterococcus faecalis (GC 4553)” value (Enterococcus sp.; Enterococcus faecalis (GC 4553)) of the same compound?
A: 2 µg/mL (≈ 1.31 µM)

Q: What about the “MIC Enterococcus faecalis (GC 4554)” value (Enterococcus sp.; Enterococcus faecalis (GC 4554)) of the same compound?
A: 4 µg/mL (≈ 2.62 µM)

Q: What about the “MIC Enterococcus faecalis (GC 6189)” value (Enterococcus sp.; Enterococcus faecalis (GC 6189)) of the same compound?
A: 4 µg/mL (≈ 2.62 µM)

Q: What about the “MIC Enterococcus faecium (GC 2243)” value (Enterococcus sp.; Enterococcus faecium (GC 2243)) of the same compound?
A: 2 µg/mL (≈ 1.31 µM)

Q: And the “MIC Enterococcus faecium (GC 4556)” value (Enterococcus sp.; Enterococcus faecium (GC 4556))?
A: 4 µg/mL (≈ 2.62 µM)

Q: And the “MIC Enterococcus faecium (GC 4557)” value (Enterococcus sp.; Enterococcus faecium (GC 4557))?
A: 1 µg/mL (≈ 0.655 µM)

Q: And the “MIC Enterococcus avium (GC 4558)” value (Enterococcus sp.)?
A: 2 µg/mL (≈ 1.31 µM)

Q: And the “MIC Enterococcus faecalis (ATCC 29212)” value (Enterococcus sp.)?
A: 4 µg/mL (≈ 2.62 µM)

Q: And the “MIC Enterococcus faecalis (GC 2242)” value (Enterococcus sp.)?
A: 4 µg/mL (≈ 2.62 µM)

Q: And the “MIC Enterococcus faecalis (GC 2691)” value (Enterococcus sp.)?
A: 4 µg/mL (≈ 2.62 µM)

Q: What about the “MIC Enterococcus faecalis (GC 3059)” value (Enterococcus sp.) of the same compound?
A: 4 µg/mL (≈ 2.62 µM)

Q: What about the “MIC Enterococcus faecalis (GC 4552)” value (Enterococcus sp.) of the same compound?
A: 4 µg/mL (≈ 2.62 µM)

Q: And the “MIC Enterococcus faecalis (GC 4553)” value (Enterococcus sp.)?
A: 2 µg/mL (≈ 1.31 µM)

Q: What about the “MIC Enterococcus faecalis (GC 4554)” value (Enterococcus sp.) of the same compound?
A: 4 µg/mL (≈ 2.62 µM)

Q: And the “MIC Enterococcus faecalis (GC 6189)” value (Enterococcus sp.)?
A: 4 µg/mL (≈ 2.62 µM)

Q: What about the “MIC Enterococcus faecium (GC 2243)” value (Enterococcus sp.) of the same compound?
A: 2 µg/mL (≈ 1.31 µM)

Q: What about the “MIC Enterococcus faecium (GC 4556)” value (Enterococcus sp.) of the same compound?
A: 4 µg/mL (≈ 2.62 µM)

Q: What about the “MIC Enterococcus faecium (GC 4557)” value (Enterococcus sp.) of the same compound?
A: 1 µg/mL (≈ 0.655 µM)

Q: And the “MIC Enterococcus faecalis (GC 2242)” value (Enterococcus sp.; strain GC 2242)?
A: 4 µg/mL (≈ 2.62 µM)

Q: And the “MIC Enterococcus faecalis (GC 2691)” value (Enterococcus sp.; strain GC 2691)?
A: 4 µg/mL (≈ 2.62 µM)

Q: What about the “MIC Enterococcus faecalis (GC 3059)” value (Enterococcus sp.; strain GC 3059) of the same compound?
A: 4 µg/mL (≈ 2.62 µM)

Q: And the “MIC Coagulase Negative Staphylococcus (GC 4547)” value (Staphylococcus sp.)?
A: 2 µg/mL (≈ 1.31 µM)

Q: And the “MIC Coagulase Negative Staphylococcus (GC 4548)” value (Staphylococcus sp.)?
A: 1 µg/mL (≈ 0.655 µM)

Q: And the “MIC Coagulase Negative Staphylococcus (GC 4549)” value (Staphylococcus sp.)?
A: 2 µg/mL (≈ 1.31 µM)

Q: What about the “MIC Coagulase Negative Staphylococcus (GC 4551)” value (Staphylococcus sp.) of the same compound?
A: 2 µg/mL (≈ 1.31 µM)

Q: What about the “MIC Staphylococcus aureus-SMITH (GC 4543)” value (Staphylococcus sp.) of the same compound?
A: 2 µg/mL (≈ 1.31 µM)

Q: And the “MIC Staphylococcus haemolyticus (GC 4546)” value (Staphylococcus sp.)?
A: 2 µg/mL (≈ 1.31 µM)

Q: And the “MIC Staphylococcus aureus (ATCC 29213)” value (Staphylococcus sp.; strain ATCC 29213)?
A: 2 µg/mL (≈ 1.31 µM)

Q: What about the “MIC Staphylococcus aureus (GC 1131)” value (Staphylococcus sp.; strain GC 1131) of the same compound?
A: 4 µg/mL (≈ 2.62 µM)

Q: And the “MIC Staphylococcus aureus (GC 3051)” value (Staphylococcus sp.; strain GC 3051)?
A: 4 µg/mL (≈ 2.62 µM)

Q: What about the “MIC Staphylococcus aureus (GC 3053)” value (Staphylococcus sp.; strain GC 3053) of the same compound?
A: 4 µg/mL (≈ 2.62 µM)

Q: What about the “MIC Staphylococcus aureus (GC 4541)” value (Staphylococcus sp.; strain GC 4541) of the same compound?
A: 2 µg/mL (≈ 1.31 µM)

Q: What about the “MIC Staphylococcus aureus (GC 4542)” value (Staphylococcus sp.; strain GC 4542) of the same compound?
A: 4 µg/mL (≈ 2.62 µM)

Q: And the “MIC Staphylococcus aureus-SMITH (GC 4543)” value (Staphylococcus sp.; strain GC 4543)?
A: 2 µg/mL (≈ 1.31 µM)

Q: What about the “MIC Staphylococcus aureus (GC 4544)” value (Staphylococcus sp.; strain GC 4544) of the same compound?
A: 4 µg/mL (≈ 2.62 µM)

Q: And the “MIC Staphylococcus aureus (GC 4545)” value (Staphylococcus sp.; strain GC 4545)?
A: 2 µg/mL (≈ 1.31 µM)

Q: And the “MIC Staphylococcus haemolyticus (GC 4546)” value (Staphylococcus sp.; strain GC 4546)?
A: 2 µg/mL (≈ 1.31 µM)

Q: And the “MIC Coagulase Negative Staphylococcus (GC 4547)” value (Staphylococcus sp.; strain GC 4547)?
A: 2 µg/mL (≈ 1.31 µM)

Q: And the “MIC Coagulase Negative Staphylococcus (GC 4548)” value (Staphylococcus sp.; strain GC 4548)?
A: 1 µg/mL (≈ 0.655 µM)

Q: And the “MIC Coagulase Negative Staphylococcus (GC 4549)” value (Staphylococcus sp.; strain GC 4549)?
A: 2 µg/mL (≈ 1.31 µM)

Q: And the “MIC Coagulase Negative Staphylococcus (GC 4551)” value (Staphylococcus sp.; strain GC 4551)?
A: 2 µg/mL (≈ 1.31 µM)

Q: And the “MIC Streptococcus agalactiae (GC 4564)” value (Streptococcus sp.)?
A: 0.25 µg/mL (≈ 0.164 µM)

Q: And the “MIC Streptococcus pneumoniae (ATCC 6301)” value (Streptococcus sp.)?
A: 0.5 µg/mL (≈ 0.328 µM)

Q: What about the “MIC Streptococcus pneumoniae (GC 1894)” value (Streptococcus sp.) of the same compound?
A: <0.12 µg/mL

Q: What about the “MIC Streptococcus pneumoniae (GC 4565)” value (Streptococcus sp.) of the same compound?
A: 0.25 µg/mL (≈ 0.164 µM)

Q: What about the “MIC Streptococcus pyogenes (GC 4563)” value (Streptococcus sp.) of the same compound?
A: 0.25 µg/mL (≈ 0.164 µM)

Q: And the “MIC Streptococcus pneumoniae (ATCC 6301)” value (Streptococcus sp.; strain ATCC 6301)?
A: 0.5 µg/mL (≈ 0.328 µM)

Q: And the “MIC Streptococcus pneumoniae (GC 1894)” value (Streptococcus sp.; strain GC 1894)?
A: <0.12 µg/mL

Q: What about the “MIC Streptococcus pyogenes (GC 4563)” value (Streptococcus sp.; strain GC 4563) of the same compound?
A: 0.25 µg/mL (≈ 0.164 µM)

Q: What about the “MIC Streptococcus agalactiae (GC 4564)” value (Streptococcus sp.; strain GC 4564) of the same compound?
A: 0.25 µg/mL (≈ 0.164 µM)

Q: And the “MIC Streptococcus pneumoniae (GC 4565)” value (Streptococcus sp.; strain GC 4565)?
A: 0.25 µg/mL (≈ 0.164 µM)

Q: What about the “MIC Escherichia coli (ATCC 25922)” value (Escherichia coli) of the same compound?
A: 64 µg/mL (≈ 41.9 µM)

Q: What about the “MIC Escherichia coli (GC 4559)” value (Escherichia coli) of the same compound?
A: 32 µg/mL (≈ 21 µM)

Q: And the “MIC Escherichia coli (GC 4560)” value (Escherichia coli)?
A: 2 µg/mL (≈ 1.31 µM)

Reference: US6914045B2, “Glycopeptide antibiotics” (Wyeth Holdings Corporation, priority 2001, dated 2005)
